Experimental data published in patent US20250282746A1, “HALOGEN-SUBSTITUTED ISOINDOLINE COMPOUND AND USE THEREOF” (CHENGDU FENDI PHARMACEUTICAL CO., LTD., priority 2022, published 2025).
pIC50: −log10 of the molar value.

Key:
[1] = system: MV-4-11 cells; experiment: Antiproliferative activity against MV-4-11 cells (CellTiter-Glo, 72 h); format: cell-based; conditions: Homo sapiens, MV4-11; MV-4-11 cells, 72 h; read-out: Antiproliferative activity IC50
Method: MV411 cells in the logarithmic growth phase were diluted in a medium (RPMI+10% FBS) and plated at 5,000 cells/well in 96-well whole black plates (WHB) with 50 μL/well. After plating, the plates were incubated in an incubator at 5% CO2 and 37° C. for 24 h before the compounds were added. The compounds were prepared into a 10 mM stock solution in DMSO and diluted in a culture medium to the desired concentrations (a final DMSO concentration of 0.2%). […] The plates were incubated at 5% CO2 and 37° C. for 72 h. After the incubation was complete, the plates were equilibrated at room temperature for 30 min. CellTiter-Glo® Reagent (Promega G7573) was added at 100 μL/well. The plates were shaken for 12 min on a microplate shaker. The luminescence value was measured at room temperature by the GloMax navigator (Promega GM2010).

[2] = target: T1, GSPT1 protein (Homo sapiens, UniProt P15170); experiment: Degradation of GSPT1 protein in NB-4 cells (Western blot); format: cell-based; conditions: NB-4 cells, compound 1 μM, 6 h; read-out: GSPT1 degradation
T1 construct: The whole cell lysate was prepared using a RIPA lysis buffer; endogenous in cells; host or cells: NB-4 cells
Method: 150 μL of DMSO and the compounds (1 μM) were added, and the mixture was incubated in an incubator at 5% CO2 and 37° C. for 6 h. The cells were centrifuged, and the culture medium was discarded. PBS was added for washing and then discarded. The whole cell lysate was prepared using a RIPA lysis buffer containing a protease inhibitor cocktail and a phosphatase inhibitor, and incubated on ice for 30 min. The mixture was centrifuged, and the cell debris was discarded. The whole cell lysate supernatant was collected and transferred to a fresh EP tube. Samples were prepared using a loading buffer after a BCA protein assay. The samples were incubated in a metal bath at 100° C. for 10 min.
The samples were electrophoretically separated from proteins on a 4-20% precast gel (SDS-PAGE gel), transferred to a PVDF membrane, blocked with 5% NFDM/TBST for 1 h at room temperature, co-incubated overnight at 4° C. with the primary antibody, and co-incubated for 2 h at room temperature with the secondary antibody on the next day. The signals were detected on the […]™ imaging system.

T1 sequence (P15170 whole entry): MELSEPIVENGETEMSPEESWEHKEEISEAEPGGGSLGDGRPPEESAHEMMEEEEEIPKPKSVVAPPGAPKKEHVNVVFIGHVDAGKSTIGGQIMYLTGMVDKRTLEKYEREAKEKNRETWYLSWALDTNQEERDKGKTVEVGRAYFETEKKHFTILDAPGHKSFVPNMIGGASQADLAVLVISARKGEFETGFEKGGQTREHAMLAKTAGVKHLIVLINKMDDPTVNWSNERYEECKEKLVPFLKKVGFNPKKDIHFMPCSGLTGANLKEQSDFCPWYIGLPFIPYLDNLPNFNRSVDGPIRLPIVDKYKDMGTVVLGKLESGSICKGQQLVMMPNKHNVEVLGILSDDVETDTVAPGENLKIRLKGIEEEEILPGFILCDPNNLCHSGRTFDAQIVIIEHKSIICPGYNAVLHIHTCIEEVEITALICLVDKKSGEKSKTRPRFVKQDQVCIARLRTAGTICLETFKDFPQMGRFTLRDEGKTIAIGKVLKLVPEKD

| pIC50 [1] | inhibition at 1 µM [2] [%] | SMILES |
| --- | --- | --- |
| 7.00 to 8.00 | > 80 | O=C1CCC(N2Cc3c(ccc(CNC(=O)c4ccc(Cl)c(O)c4)c3Cl)C2=O)C(=O)N1 (stereo not drawn) [FDAB-79] |
| 8.00 to 9.00 | > 80 | O=C1CCC(N2Cc3cc(CNC(=O)c4ccc(C(F)(F)F)cc4)c(F)cc3C2=O)C(=O)N1 (stereo not drawn) [FDAB-52] |
| < 6.00 | < 25 | NS(=O)(=O)c1cc(C(=O)NCc2ccc3c(c2F)CN(C2CCC(=O)NC2=O)C3=O)ccc1Cl (stereo not drawn) [FDAB-115] |
| < 6.00 | < 25 | O=C1CCC(N2Cc3cc(CNC(=O)C4CCCC4)c(F)cc3C2=O)C(=O)N1 (stereo not drawn) [FDAB-41] |
| > 9.00 | > 80 | O=C1CCC(N2Cc3c(ccc(CNC(=O)c4ccc(-c5ccccc5)cc4)c3F)C2=O)C(=O)N1 (stereo not drawn) [FDAB-84] |
| > 9.00 | > 80 | O=C(COc1c(Cl)cc(Cl)cc1Cl)NCc1ccc2c(c1F)CN(C1CCC(=O)NC1=O)C2=O (stereo not drawn) [FDAB-152] |
| 8.00 to 9.00 | > 80 | O=C(C#Cc1ccccn1)NCc1ccc2c(c1F)CN(C1CCC(=O)NC1=O)C2=O (stereo not drawn) [FDAB-148] |
| < 6.00 | < 25 | N#Cc1cc(C(=O)NCc2ccc3c(c2Cl)CN(C2CCC(=O)NC2=O)C3=O)ccc1Cl (stereo not drawn) [FDAB-78] |
| 8.00 to 9.00 | > 80 | O=C1CCC(N2Cc3c(ccc(CNC(=O)c4cc5ccccc5o4)c3F)C2=O)C(=O)N1 (stereo not drawn) [FDAB-45] |
| < 6.00 | < 25 | NCc1cc2c(cc1Cl)C(=O)N(C1CCC(=O)NC1=O)C2 (stereo not drawn) [FDAB-15] |
| 7.00 to 8.00 | > 80 | O=C1CCC(N2Cc3c(ccc(CNC(=O)c4ccc(Cl)cc4F)c3Cl)C2=O)C(=O)N1 (stereo not drawn) [FDAB-119] |
| < 6.00 | < 25 | Nc1ccc(C(=O)NCc2cc3c(cc2F)C(=O)N(C2CCC(=O)NC2=O)C3)cc1 (stereo not drawn) [FDAB-27] |
| < 6.00 | < 25 | O=C1CCC(N2Cc3cc(CNC(=O)c4ccccc4)c(F)cc3C2=O)C(=O)N1 (stereo not drawn) [FDAB-25] |
| 7.00 to 8.00 | 50 to 80 | Cc1ccc(C(=O)NCc2ccc3c(c2Cl)CN(C2CCC(=O)NC2=O)C3=O)c(F)c1 (stereo not drawn) [FDAB-123] |
| < 6.00 | < 25 | O=C1CCC(N2Cc3cc(CNC(=O)c4cc5cc(Cl)ccc5o4)cc(F)c3C2=O)C(=O)N1 (stereo not drawn) [FDAB-22] |
| 7.00 to 8.00 | 50 to 80 | NCc1cc2c(cc1F)C(=O)N(C1CCC(=O)NC1=O)C2 (stereo not drawn) [FDAB-6] |
| < 6.00 | < 25 | O=C1CCC(N2Cc3cc(CNC(=O)c4ccccn4)c(F)cc3C2=O)C(=O)N1 (stereo not drawn) [FDAB-29] |
| 8.00 to 9.00 | > 80 | O=C1CCC(N2Cc3c(ccc(CNC(=O)c4ccc(Cl)c(F)c4)c3F)C2=O)C(=O)N1 (stereo not drawn) [FDAB-116] |
| > 9.00 | > 80 | CCCOc1ccc(/C=C/C(=O)NCc2ccc3c(c2F)CN(C2CCC(=O)NC2=O)C3=O)cc1 (stereo not drawn) [FDAB-143] |
| > 9.00 | > 80 | CCCc1ccc(C(=O)NCc2ccc3c(c2F)CN(C2CCC(=O)NC2=O)C3=O)cc1 (stereo not drawn) [FDAB-91] |
| < 6.00 | < 25 | O=C1CCC(N2Cc3cc(CNC(=O)c4cc5cc(Cl)ccc5o4)c(Cl)cc3C2=O)C(=O)N1 (stereo not drawn) [FDAB-72] |
| 8.00 to 9.00 | > 80 | O=C1CCC(N2Cc3c(ccc(CNC(=O)c4ccc(C5CC5)cc4)c3F)C2=O)C(=O)N1 (stereo not drawn) [FDAB-97] |
| > 9.00 | > 80 | O=C(C#Cc1ccc(Cl)cc1)NCc1ccc2c(c1F)CN(C1CCC(=O)NC1=O)C2=O (stereo not drawn) [FDAB-145] |
| 8.00 to 9.00 | 50 to 80 | O=C1CCC(N2Cc3c(ccc(CNC(=O)c4cc5ccccc5[nH]4)c3Cl)C2=O)C(=O)N1 (stereo not drawn) [FDAB-75] |
| 8.00 to 9.00 | > 80 | O=C1CCC(N2Cc3cc(CNC(=O)c4cc5cc(Cl)ccc5o4)c(F)cc3C2=O)C(=O)N1 (stereo not drawn) [FDAB-20] |
| 8.00 to 9.00 | > 80 | O=C1CCC(N2Cc3c(ccc(CNC(=O)c4ccc(C(F)(F)F)cc4)c3F)C2=O)C(=O)N1 (stereo not drawn) [FDAB-61] |

| pIC50 [1] | inhibition at 1 µM [2] [%] | SMILES |
| --- | --- | --- |
| 6.00 to 7.00 | < 25 | NCc1cc(F)cc2c1CN(C1CCC(=O)NC1=O)C2=O (stereo not drawn) [FDAB-17] |
| 7.00 to 8.00 | > 80 | Cc1ccc(C(=O)NCc2cc3c(cc2F)C(=O)N(C2CCC(=O)NC2=O)C3)cc1 (stereo not drawn) [FDAB-51] |
| < 6.00 | < 25 | O=C1CCC(N2Cc3cc(CNC(=O)c4cccc(O)c4)c(F)cc3C2=O)C(=O)N1 (stereo not drawn) [FDAB-36] |
| 7.00 to 8.00 | 50 to 80 | CC(=O)c1ccc(C(=O)NCc2ccc3c(c2F)CN(C2CCC(=O)NC2=O)C3=O)cc1 (stereo not drawn) [FDAB-99] |
| > 9.00 | > 80 | CCCCOc1ccc(CC(=O)NCc2ccc3c(c2F)CN(C2CCC(=O)NC2=O)C3=O)cc1 (stereo not drawn) [FDAB-132] |
| < 6.00 | < 25 | N#Cc1cc(C(=O)NCc2ccc3c(c2F)CN(C2CCC(=O)NC2=O)C3=O)ccc1Cl (stereo not drawn) [FDAB-82] |
| < 6.00 | < 25 | CCN1C(=O)CCC(N2Cc3c(ccc(CNC(=O)c4ccc(Cl)cc4)c3F)C2=O)C1=O (stereo not drawn) [FDAB-125] |
| 8.00 to 9.00 | > 80 | O=C1CCC(N2Cc3cc(CNC(=O)c4cc5ccccc5[nH]4)c(F)cc3C2=O)C(=O)N1 (stereo not drawn) [FDAB-24] |
| < 6.00 | < 25 | N#Cc1ccc2c(c1Cl)CN(C1CCC(=O)NC1=O)C2=O (stereo not drawn) [FDAB-10] |
| < 6.00 | < 25 | CCOC(=O)CN1C(=O)CCC(N2Cc3c(ccc(CNC(=O)c4ccc(Cl)cc4)c3F)C2=O)C1=O (stereo not drawn) [FDAB-126] |
| 7.00 to 8.00 | > 80 | O=C1CCC(N2Cc3c(ccc(CNC(=O)c4ccc5ccccc5n4)c3F)C2=O)C(=O)N1 (stereo not drawn) [FDAB-66] |
| 7.00 to 8.00 | > 80 | O=C(CCc1cccc2ccccc12)NCc1cc(F)cc2c1CN(C1CCC(=O)NC1=O)C2=O (stereo not drawn) [FDAB-170] |
| < 6.00 | < 25 | N#Cc1cc(F)c2c(c1)CN(C1CCC(=O)NC1=O)C2=O (stereo not drawn) [FDAB-7] |
| 7.00 to 8.00 | 50 to 80 | N#Cc1cc(C(=O)NCc2cc3c(cc2F)C(=O)N(C2CCC(=O)NC2=O)C3)ccc1Cl (stereo not drawn) [FDAB-54] |
| < 6.00 | > 80 | Cn1ccc2ccc(C(=O)NCc3cc4c(cc3F)C(=O)N(C3CCC(=O)NC3=O)C4)cc21 (stereo not drawn) [FDAB-59] |
| < 6.00 | < 25 | CS(=O)(=O)c1ccc(C(=O)NCc2ccc3c(c2F)CN(C2CCC(=O)NC2=O)C3=O)cc1 (stereo not drawn) [FDAB-107] |
| < 6.00 | < 25 | NCc1ccc2c(c1Cl)CN(C1CCC(=O)NC1=O)C2=O (stereo not drawn) [FDAB-12] |
| > 9.00 | > 80 | O=C(C#Cc1cccc(O)c1)NCc1ccc2c(c1F)CN(C1CCC(=O)NC1=O)C2=O (stereo not drawn) [FDAB-146] |
| 8.00 to 9.00 | 50 to 80 | O=C(Cc1c[nH]c2ccc(F)cc12)NCc1ccc2c(c1F)CN(C1CCC(=O)NC1=O)C2=O (stereo not drawn) [FDAB-134] |
| 8.00 to 9.00 | > 80 | CCc1ccc(C(=O)NCc2ccc3c(c2F)CN(C2CCC(=O)NC2=O)C3=O)cc1 (stereo not drawn) [FDAB-90] |
| 7.00 to 8.00 | > 80 | O=C1CCC(N2Cc3c(ccc(CNCc4ccc(Cl)cc4)c3F)C2=O)C(=O)N1 (stereo not drawn) [FDAB-168] |
| < 6.00 | < 25 | O=C1CCC(N2Cc3cc(CNC(=O)C4CCCCC4)c(F)cc3C2=O)C(=O)N1 (stereo not drawn) [FDAB-42] |
| > 9.00 | > 80 | O=C1CCC(N2Cc3c(ccc(CNC(=O)c4ccc(N5CCCC5)cc4)c3F)C2=O)C(=O)N1 (stereo not drawn) [FDAB-110] |
| < 6.00 | < 25 | COc1cc(C)ccc1C(=O)NCc1ccc2c(c1F)CN(C1CCC(=O)NC1=O)C2=O (stereo not drawn) [FDAB-104] |
| > 9.00 | > 80 | O=C(Cc1ccc(Cl)cc1Cl)NCc1ccc2c(c1F)CN(C1CCC(=O)NC1=O)C2=O (stereo not drawn) [FDAB-131] |
